Reference: patent US7208281B2 (priority 2001, dated 2007)
Like-named read-outs stand apart in the source and are kept apart here.

Legend:
[1] = test system: prions; conditions: cited from earlier work
[2] = test system: PrPsc
[3] = target: PrPC (Bos taurus, UniProt P10279); conditions: fibronectin coupled with europium nanobeads, incubated with sample
[4] = test system: PrPsc; remark: listed apart in the source
[5] = target: PrPC (Homo sapiens, UniProt P04156); conditions: microtiter plate coated with fibronectin
[6] = test system: PrPsc; conditions: cited from earlier work

Sequence of PrPC (Bos taurus, UniProt P10279) (P10279 25-241 limits assumed): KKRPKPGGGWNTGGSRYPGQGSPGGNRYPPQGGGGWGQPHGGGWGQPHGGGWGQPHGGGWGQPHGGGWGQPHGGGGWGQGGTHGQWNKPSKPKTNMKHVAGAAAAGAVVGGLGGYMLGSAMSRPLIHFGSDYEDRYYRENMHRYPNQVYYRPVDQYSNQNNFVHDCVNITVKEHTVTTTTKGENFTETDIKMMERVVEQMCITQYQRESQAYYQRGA

## poly-b-xylose-2,3-disulphonate [Pentosan]
[1]
  inhibition of the production of prions: inhibits the production of prions most strongly

## fibronectin
[2]
  adherence of pathological PrP (PrPsc): adheres
[3]
  adherence of normal PrP (PrPc): does not
[4]
  adherence of pathological PrP (PrPsc): adheres
[5]
  adherence of normal PrP (PrPc): does not

## plasminogen
[6]
  binding of PrPsc: binding specifically
